# Calls of active or inactive are those of the source. The calls are words filed in the database; no cut-off is given here.
# What was measured:
# [1] = test system: GES1; assay: Antiproliferative activity against human GES-1 cells after 48 hrs by MTT assay; type: cell-based; details: GES1, 48 h
# [2] = test system: EC9706; assay: Cell cycle arrest in human EC9706 cells assessed as increase in S phase population at 2 uM after 24 hrs by propidium iodide staining based flow cytometry relative to control; type: functional
# [3] = test system: EC9706; assay: Induction of apoptosis in human EC9706 cells assessed as live cells at 2 uM after 48 hrs by Annexin V-FITC/propidium iodide staining based flow cytometry (reference value: 85.5 to 96%); type: functional
# [4] = test system: EC9706; assay: Antiproliferative activity against human EC9706 cells after 48 hrs by MTT assay; type: functional, cell-based; details: EC9706, 48 h
# [5] = test system: EC9706; assay: Cell cycle arrest in human EC9706 cells assessed as decrease in G2/M phase population at 4 uM after 24 hrs by propidium iodide staining based flow cytometry relative to control; type: functional
# [6] = test system: EC9706; assay: Induction of apoptosis in human EC9706 cells assessed as increase in tBid protein expression at 2 to 8 uM after 48 hrs by Western blot analysis; type: functional, cell-based
# [7] = test system: ECa-109 cell line; assay: Induction of apoptosis in human EC109 cells assessed as increase in tBid protein expression at 2 to 8 uM after 48 hrs by Western blot analysis; type: functional, cell-based
# [8] = test system: MCF7; assay: Antiproliferative activity against human MCF7 cells after 72 hrs by MTT assay; type: functional, cell-based; details: MCF7, 72 h
# [9] = test system: ECa-109 cell line; assay: Induction of apoptosis in human EC109 cells assessed as increase in cleaved caspase-3 protein expression after 48 hrs by Western blot analysis; type: functional, cell-based
# [10] = test system: EC9706; assay: Cell cycle arrest in human EC9706 cells assessed as increase in G0/G1 phase population at 8 uM after 24 hrs by propidium iodide staining based flow cytometry relative to control; type: functional
# [11] = test system: ECa-109 cell line; assay: Effect on Prxs-3 protein expression in human EC109 cells at 2 to 8 uM after 48 hrs by Western blot analysis; type: functional, cell-based
# [12] = test system: EC9706; assay: Induction of apoptosis in human EC9706 cells assessed as increase in cleaved caspase-8 protein expression after 48 hrs by Western blot analysis; type: functional, cell-based
# [13] = test system: EC9706; assay: Induction of apoptosis in human EC9706 cells assessed as late apoptotic cells at 4 uM after 48 hrs by Annexin V-FITC/propidium iodide staining based flow cytometry (reference value: 1.29 to 1.99%); type: functional
# [14] = test system: ECa-109 cell line; assay: Cell cycle arrest in human EC109 cells assessed as accumulation at G0/G1 phase after 24 hrs by propidium iodide staining based flow cytometry; type: functional
# [15] = test system: EC9706; assay: Induction of morphological changes in human EC9706 cells assessed as cell rounding after 48 hrs by Hoechst 33342 staining based fluorescence microscopic method; type: functional
# [16] = test system: Mus musculus; assay: Acute toxicity in C57BL/6 mouse assessed as change in physical phenotype at 2 g/kg, ig measured for 2 weeks; type: organism-based; details: in vivo, po, 2000 mg/kg, 336 h
# [17] = test system: EC9706; assay: Anticlonogenic activity against human EC9706 cells after 7 days by crystal violet staining based assay; type: functional, cell-based
# [18] = test system: ECa-109 cell line; assay: Induction of apoptosis in human EC109 cells assessed as live cells at 2 uM after 48 hrs by Annexin V-FITC/propidium iodide staining based flow cytometry (reference value: 95.2 to 99%); type: functional
# [19] = test system: ECa-109 cell line; assay: Induction of apoptosis in human EC109 cells assessed as increase in Bax protein expression after 48 hrs by Western blot analysis; type: functional, cell-based
# [20] = test system: ECa-109 cell line; assay: Effect on Prxs-5 protein expression in human EC109 cells at 2 to 8 uM after 48 hrs by Western blot analysis; type: functional, cell-based
# [21] = test system: Mus musculus; assay: Acute toxicity in C57BL/6 mouse assessed as mortality at 2 g/kg, ig measured for 2 weeks; type: organism-based; details: in vivo, po, 2000 mg/kg, 336 h
# [22] = test system: PC-3; assay: Antiproliferative activity against human PC3 cells after 72 hrs by MTT assay; type: functional, cell-based; details: PC-3, 72 h
# [23] = test system: EC9706; assay: Upregulation of p27 protein expression in human EC9706 cells at 4 uM after 24 to 48 hrs by Western blot analysis relative to control; type: functional
# [24] = test system: ECa-109 cell line; assay: Induction of apoptosis in human EC109 cells assessed as early apoptotic cells at 8 uM after 48 hrs in presence of caspase inhibitor Z-VAD-FMK by Annexin V-FITC/propidium iodide staining based flow cytometry (reference value: 0.52%); type: functional
# [25] = test system: EC9706; assay: Induction of apoptosis in human EC9706 cells assessed as necrotic cells at 2 uM after 48 hrs by Annexin V-FITC/propidium iodide staining based flow cytometry (reference value: 1.1 to 1.31%); type: functional
# [26] = test system: Mus musculus; assay: Acute toxicity in C57BL/6 mouse assessed as histopathological changes in lung at 2 g/kg, ig measured for 2 weeks by hematoxylin and eosin staining based microscopic method; type: organism-based; details: in vivo, po, 2000 mg/kg, 336 h
# [27] = test system: ECa-109 cell line; assay: Induction of apoptosis in human EC109 cells assessed as necrotic cells at 2 uM after 48 hrs by Annexin V-FITC/propidium iodide staining based flow cytometry (reference value: 0.74 to 1.18%); type: functional
# [28] = test system: EC9706; assay: Induction of apoptosis in human EC9706 cells assessed as early apoptotic cells at 4 uM after 48 hrs in presence of caspase inhibitor Z-VAD-FMK by Annexin V-FITC/propidium iodide staining based flow cytometry (reference value: 0.33%); type: functional
# [29] = test system: EC9706; assay: Effect on Prxs-5 protein expression in human EC9706 cells at 2 to 8 uM after 48 hrs by Western blot analysis; type: functional, cell-based
# [30] = test system: ECa-109 cell line; assay: Induction of ROS generation in human EC109 cells at 2 to 4 uM after 24 hrs in presence of anti-oxidant NAC by DCFH-DA staining based flow cytometry; type: functional, cell-based
# [31] = test system: ECa-109 cell line; assay: Induction of apoptosis in human EC109 cells assessed as live cells at 4 uM after 48 hrs in presence of caspase inhibitor Z-VAD-FMK by Annexin V-FITC/propidium iodide staining based flow cytometry (reference value: 96.2%); type: functional
# [32] = test system: EC9706; assay: Induction of morphological changes in human EC9706 cells assessed as chromatin condensation after 48 hrs by Hoechst 33342 staining based fluorescence microscopic method; type: functional, cell-based
# [33] = test system: EC9706; assay: Effect on Prxs-3 protein expression in human EC9706 cells at 2 to 8 uM after 48 hrs by Western blot analysis; type: functional, cell-based
# [34] = test system: EC9706; assay: Cell cycle arrest in human EC9706 cells assessed as increase in G0/G1 phase population at 2 uM after 24 hrs by propidium iodide staining based flow cytometry relative to control; type: functional
# [35] = test system: ECa-109 cell line; assay: Induction of apoptosis in human EC109 cells assessed as necrotic cells at 4 uM after 48 hrs by Annexin V-FITC/propidium iodide staining based flow cytometry (reference value: 0.74 to 1.18%); type: functional
# [36] = test system: ECa-109 cell line; assay: Antiproliferative activity against human EC109 cells after 24 hrs by MTT assay; type: functional, cell-based; details: ECa-109, 24 h
# [37] = test system: ECa-109 cell line; assay: Induction of ROS generation in human EC109 cells at 4 uM after 24 hrs by DCFH-DA staining based flow cytometry relative to control; type: functional
# [38] = test system: EC9706; assay: Induction of ROS generation in human EC9706 cells at 4 uM after 24 hrs by DCFH-DA staining based flow cytometry relative to control; type: functional
# [39] = test system: ECa-109 cell line; assay: Induction of apoptosis in human EC109 cells assessed as necrotic cells at 4 uM after 48 hrs in presence of caspase inhibitor Z-VAD-FMK by Annexin V-FITC/propidium iodide staining based flow cytometry (reference value: 2.37%); type: functional
smiles,measurement,setting,value
COc1ccc(/C=N/NC(=O)c2cccc(S(=O)(=O)N3CCOCC3)c2)c(O)c1,IC50,[1],> 80 µM
same,fold change (FC),[2],1.54
same,Activity,[3],82.8%
same,IC50,[4],7.51 µM
same,fold change (FC),[5],0.3
same,Activity,[6],Active
same,Activity,[7],Active
same,IC50,[8],5.14 µM
same,Activity,[9],Dose-dependent effect
same,fold change (FC),[10],1.27
same,Activity,[11],Active
same,Activity,[12],Dose-dependent effect
same,Activity,[13],18.2 - 21.6%
same,Activity,[14],Dose-dependent effect
same,Activity,[15],Dose-dependent effect
same,Activity,[16],Non-Toxic
same,Activity,[17],Active
same,Activity,[18],79.1%
same,Activity,[19],Dose-dependent effect
same,Activity,[20],Active
same,Activity,[21],Non-Toxic
same,IC50,[22],5.8 µM
same,fold change (FC),[23],1.4
same,Activity,[24],14.1%
same,Activity,[25],10.1%
same,Activity,[26],Non-Toxic
same,Activity,[27],2.64%
same,Activity,[28],13.3%
same,Activity,[29],Active
same,Activity,[30],inactive
same,Activity,[31],49%
same,Activity,[32],Dose-dependent effect
same,Activity,[33],Active
same,fold change (FC),[34],1.07
same,Activity,[35],4.45 - 11.3%
same,IC50,[36],> 20 µM
same,fold change (FC),[37],2.05
same,fold change (FC),[38],1.45
same,Activity,[39],20.4%
